Source: paper PMC10620772, “Design, synthesis, and biological evaluation of new pyrimidine-5-carbonitrile derivatives as novel anti-cancer, dual EGFR^WT/COX-2 inhibitors with docking studies” (RSC Advances, 2023)
Where “and” joins values, the source holds several entries; their conditions need not be identical. Identical values can stand only once. Entries after “also recorded” stand apart in the source; their conditions may differ.

Tests used:
Assay type in all cases: cell-based, human
[1] = tested on: SF-295; assay: NCI60 antitumor screening
[2] = tested on: SF-539; assay: NCI60 antitumor screening
[3] = tested on: ACHN; assay: NCI60 antitumor screening
[4] = tested on: NCI60 cell lines panel; assay: NCI60 antitumor screening, full panel
Summary of the method: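 Percent growth inhibition (GI%) was recorded for each of the NCI60 lines, spanning leukaemia, lung, colon, CNS, melanoma, ovarian, renal, prostate and breast cancers, after exposure to compounds at one concentration, 10 μM.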

[5] = tested on: SK-MEL-2; assay: NCI60 antitumor screening; conditions: Homo sapiens; 10 μM single dose; SK-MEL-2 (melanoma); read-out: growth inhibition percent (GI%)
[6] = tested on: NCI/ADR-RES; assay: NCI60 antitumor screening
[7] = tested on: COLO 205; assay: NCI60 antitumor screening
[8] = tested on: T-47D; assay: NCI60 antitumor screening
[9] = tested on: MOLT-4; assay: NCI60 antitumor screening
[10] = tested on: SF-268; assay: NCI60 antitumor screening
[11] = tested on: CCRF-CEM; assay: NCI60 antitumor screening
[12] = tested on: NCI-H460; assay: NCI60 antitumor screening
[13] = tested on: OVCAR-5; assay: NCI60 antitumor screening
[14] = tested on: A498; assay: NCI60 antitumor screening
[15] = tested on: NCI-H23; assay: NCI60 antitumor screening
[16] = tested on: SK-MEL-5; assay: NCI60 antitumor screening
[17] = tested on: HL-60(TB); assay: NCI60 antitumor screening
[18] = Homo sapiens, SF-539, five-dose

**Q.** How did the inhibition at 10 µM ([1]; Homo sapiens, 10 μM single dose, SF-295 (CNS cancer), read-out: growth inhibition percent (GI%)) turn out when `N#Cc1c(-c2ccc(F)cc2)nc(SCc2ccc(F)cc2)nc1N1CCNCC1` [4f, 2-((4-Fluorobenzyl)thio)-4-(4-fluorophenyl)-6-(piperazin-1-yl) pyrimidine-5-carbonitrile] was run?
**A.** > 100%

**Q.** What about the TGI ([1]; five-dose) of the same molecule?
**A.** 30.90 µM

**Q.** What about the GI50 [2, 18] of the same molecule?
**A.** 15.6 µM

**Q.** And the LC50 [2, 18]?
**A.** 54.1 µM

**Q.** What about the inhibition at 10 µM ([2]; Homo sapiens, 10 μM single dose, SF-539 (CNS cancer), read-out: growth inhibition percent (GI%)) of the same molecule?
**A.** > 100%

**Q.** What about the TGI ([2]; five-dose) of the same molecule?
**A.** 29.00 µM

**Q.** What about the GI50 ([3]; Homo sapiens, ACHN, five-dose) of the same molecule?
**A.** 15 µM

**Q.** What about the LC50 ([3]; Homo sapiens, ACHN, five-dose) of the same molecule?
**A.** 54.5 µM

**Q.** What about the inhibition at 10 µM ([3]; Homo sapiens, 10 μM single dose, ACHN (renal cancer), read-out: growth inhibition percent (GI%)) of the same molecule?
**A.** > 100%

**Q.** What about the TGI ([3]; five-dose) of the same molecule?
**A.** 28.60 µM

**Q.** And the “One-dose activity over the NCI60 panel” value ([4]; 10 μM)?
**A.** lethal to most of cell lines; also recorded: Lethal to almost all NCI60 cell lines

**Q.** And the inhibition at 10 µM ([4]; Homo sapiens, 10 μM single dose, mean over NCI60 cell lines, read-out: Mean growth inhibition percent (GI%))?
**A.** > 100%

**Q.** And the GI50 ([4]; Homo sapiens, average of all cell lines, read-out: Full panel MG-MID (GI50))?
**A.** 13.5 µM

**Q.** And the “Full panel MG-MID (TGI)” value ([4]; average of all cell lines)?
**A.** 26.45 μM and 26.45 ^e μM

**Q.** What about the inhibition at 10 µM [5] of the same molecule?
**A.** > 100%

**Q.** And the GI50 ([6]; Homo sapiens, NCI/ADR-RES, five-dose)?
**A.** 13.7 µM

**Q.** And the CC50 ([6]; Homo sapiens, NCI/ADR-RES, five-dose, read-out: LC50 (the source's name))?
**A.** 67.5 µM

**Q.** And the inhibition at 10 µM ([6]; Homo sapiens, 10 μM single dose, NCI/ADR-RES (ovarian cancer), read-out: growth inhibition percent (GI%))?
**A.** > 100%

**Q.** What about the TGI ([6]; five-dose) of the same molecule?
**A.** 30.40 µM

**Q.** What about the IC50 ([7]; Homo sapiens, COLO 205) of the same molecule?
**A.** 1.83 µM

**Q.** What about the GI50 ([7]; Homo sapiens, COLO 205, five-dose) of the same molecule?
**A.** 1.83 µM

**Q.** What about the CC50 ([7]; Homo sapiens, COLO 205, five-dose, read-out: LC50 (the source's name)) of the same molecule?
**A.** 6.34 µM

**Q.** And the inhibition at 10 µM ([7]; Homo sapiens, 10 μM single dose, COLO 205 (colon cancer), read-out: growth inhibition percent (GI%))?
**A.** > 100%

**Q.** And the TGI ([7]; five-dose)?
**A.** 3.40 µM

**Q.** And the inhibition at 10 µM ([8]; Homo sapiens, T47D, 10 μM single dose, T-47D (breast cancer), read-out: growth inhibition percent (GI%))?
**A.** > 100%

**Q.** What about the GI50 ([8]; Homo sapiens, T47D, five-dose) of the same molecule?
**A.** 13.8 µM

**Q.** What about the CC50 ([8]; Homo sapiens, T47D, five-dose, read-out: LC50 (the source's name)) of the same molecule?
**A.** 67.2 µM

**Q.** And the TGI ([8]; five-dose)?
**A.** 30.40 µM

**Q.** What about the GI% ([9]; 10 μM one-dose) of the same molecule?
**A.** 92.21%

**Q.** And the GI50 ([9]; Homo sapiens, MOLT-4, five-dose)?
**A.** 10.5 µM

**Q.** And the CC50 ([9]; Homo sapiens, MOLT-4, five-dose, read-out: LC50 (the source's name))?
**A.** 64.4 µM

**Q.** And the inhibition at 10 µM ([9]; Homo sapiens, 10 μM single dose, MOLT-4 (leukaemia), read-out: growth inhibition percent (GI%))?
**A.** 92.2%

**Q.** What about the TGI ([9]; five-dose) of the same molecule?
**A.** 26.00 µM

**Q.** And the GI50 ([10]; Homo sapiens, SF-268, five-dose)?
**A.** 14.1 µM

**Q.** And the CC50 ([10]; Homo sapiens, SF-268, five-dose, read-out: LC50 (the source's name))?
**A.** 67.5 µM

**Q.** What about the inhibition at 10 µM ([10]; Homo sapiens, 10 μM single dose, SF-268 (CNS cancer), read-out: growth inhibition percent (GI%)) of the same molecule?
**A.** 58.5%

**Q.** What about the TGI ([10]; five-dose) of the same molecule?
**A.** 30.90 µM

**Q.** What about the GI% ([11]; 10 μM one-dose) of the same molecule?
**A.** 95.51%

**Q.** What about the GI50 ([11]; Homo sapiens, CCRF-CEM, five-dose) of the same molecule?
**A.** 14.9 µM

**Q.** What about the CC50 ([11]; Homo sapiens, CCRF-CEM, five-dose, read-out: LC50 (the source's name)) of the same molecule?
**A.** 76 µM

**Q.** What about the inhibition at 10 µM ([11]; Homo sapiens, 10 μM single dose, CCRF-CEM (leukaemia), read-out: growth inhibition percent (GI%)) of the same molecule?
**A.** 95.5%

**Q.** What about the TGI ([11]; five-dose) of the same molecule?
**A.** 33.60 µM

**Q.** And the GI50 ([12]; Homo sapiens, NCI-H460, five-dose)?
**A.** 14.3 µM

**Q.** What about the CC50 ([12]; Homo sapiens, NCI-H460, five-dose, read-out: LC50 (the source's name)) of the same molecule?
**A.** 60.4 µM

**Q.** What about the inhibition at 10 µM ([12]; Homo sapiens, 10 μM single dose, NCI-H460 (non-small cell lung cancer), read-out: growth inhibition percent (GI%)) of the same molecule?
**A.** > 100%

**Q.** And the TGI ([12]; five-dose)?
**A.** 29.40 µM

**Q.** What about the GI% ([13]; 10 μM one-dose) of the same molecule?
**A.** 99.16%

**Q.** And the GI50 ([13]; Homo sapiens, OVCAR-5, five-dose)?
**A.** 14.5 µM

**Q.** What about the CC50 ([13]; Homo sapiens, OVCAR-5, five-dose, read-out: LC50 (the source's name)) of the same molecule?
**A.** 53.9 µM

**Q.** And the inhibition at 10 µM ([13]; Homo sapiens, 10 μM single dose, OVCAR-5 (ovarian cancer), read-out: growth inhibition percent (GI%))?
**A.** 99.2%

**Q.** What about the TGI ([13]; five-dose) of the same molecule?
**A.** 28.00 µM

**Q.** And the GI50 ([14]; Homo sapiens, A498, five-dose)?
**A.** 15.3 µM

**Q.** And the LC50 ([14]; Homo sapiens, A498, five-dose)?
**A.** 58.2 µM

**Q.** What about the inhibition at 10 µM ([14]; Homo sapiens, 10 μM single dose, A498 (renal cancer), read-out: growth inhibition percent (GI%)) of the same molecule?
**A.** < 10%

**Q.** What about the TGI ([14]; five-dose) of the same molecule?
**A.** 29.80 µM

**Q.** What about the GI50 ([15]; Homo sapiens, NCI-H23, five-dose) of the same molecule?
**A.** 16 µM

**Q.** And the CC50 ([15]; Homo sapiens, NCI-H23, five-dose, read-out: LC50 (the source's name))?
**A.** 57.5 µM

**Q.** And the inhibition at 10 µM ([15]; Homo sapiens, 10 μM single dose, NCI-H23 (non-small cell lung cancer), read-out: growth inhibition percent (GI%))?
**A.** > 100%

**Q.** And the TGI ([15]; five-dose)?
**A.** 30.40 µM

**Q.** What about the GI50 ([16]; Homo sapiens, SK-MEL-5, five-dose) of the same molecule?
**A.** 16.8 µM

**Q.** What about the CC50 ([16]; Homo sapiens, SK-MEL-5, five-dose, read-out: LC50 (the source's name)) of the same molecule?
**A.** 55.4 µM

**Q.** And the inhibition at 10 µM ([16]; Homo sapiens, 10 μM single dose, SK-MEL-5 (melanoma), read-out: growth inhibition percent (GI%))?
**A.** > 100%

**Q.** And the TGI ([16]; five-dose)?
**A.** 30.50 µM

**Q.** And the GI50 ([17]; Homo sapiens, HL-60, five-dose)?
**A.** 7.66 µM

**Q.** What about the CC50 ([17]; Homo sapiens, HL-60, five-dose, read-out: LC50 (the source's name)) of the same molecule?
**A.** 63.8 µM

**Q.** What about the inhibition at 10 µM ([17]; Homo sapiens, 10 μM single dose, HL-60(TB) (leukaemia), read-out: growth inhibition percent (GI%)) of the same molecule?
**A.** > 100%

**Q.** And the TGI ([17]; five-dose)?
**A.** 24.00 µM
